Activity calls are given as the source filed them. The calls are words filed in the database; no cut-off is given here.
How the values were obtained:
[1] = Competitive inhibition of recombinant N-terminal hexaHis-tagged Staphylococcus aureus MS4 DSQS expressed in Escherichia coli Rosetta(DE3) using varying levels of FPP as substrate by Line weaver Burk plot analysis
[2] = Competitive inhibition of full-length N-terminal hexaHis-tagged Escherichia coli type 1 IDI using varying levels of IPP as substrate by Line weaver Burk plot analysis
[3] = target: T1, Farnesyl pyrophosphate synthase (Homo sapiens, UniProt P14324); assay: Inhibition of N-terminal hexaHis-tagged human FPPS (6 to 353 residues) expressed in Escherichia coli using GPP and IPP as substrate by enzyme coupled assay
T1 sequence (P14324 whole entry): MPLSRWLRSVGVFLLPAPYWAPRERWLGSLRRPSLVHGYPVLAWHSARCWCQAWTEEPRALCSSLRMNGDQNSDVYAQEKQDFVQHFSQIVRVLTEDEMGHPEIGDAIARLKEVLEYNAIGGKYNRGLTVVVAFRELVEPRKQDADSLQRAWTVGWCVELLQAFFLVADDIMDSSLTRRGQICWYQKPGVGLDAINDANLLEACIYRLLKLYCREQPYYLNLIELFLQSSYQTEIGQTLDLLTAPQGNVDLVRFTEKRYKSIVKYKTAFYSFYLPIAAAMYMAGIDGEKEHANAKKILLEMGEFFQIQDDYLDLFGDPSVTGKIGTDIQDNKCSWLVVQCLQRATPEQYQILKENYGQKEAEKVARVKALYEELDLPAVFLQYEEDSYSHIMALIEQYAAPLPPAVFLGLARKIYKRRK

[4] = Inhibition of 4-DMATS (unknown origin)
[5] = Inhibition of full-length N-terminal hexaHis-tagged Escherichia coli type 1 IDI using IPP as substrate by enzyme coupled assay
[6] = system: Claviceps purpurea; assay: Inhibition of Claviceps purpurea type 1 IDI

SMILES | Ki [1] | Ki [2] | IC50 [3] | inhibition [4] | IC50 [5] | Kdiss [6]
CC(C)=CCC/C(C)=C/CC/[N+](C)=C/NCP(=O)(O)CP(=O)([O-])O | 4.2 µM |  |  |  |  | 
NC(N)=NCP(=O)(O)CP(=O)(O)O |  | 0.12 µM | 233 µM | inactive | 0.3 µM | 
CC(=O)NCP(=O)(O)CP(=O)(O)O |  | 51.7 µM | 177 µM | inactive | 190 µM | 
CN(C)CCOP(=O)(O)OP(=O)(O)O |  |  |  |  |  | < 1.2 10^-10M
CC(C)CCCC(C)CCCN(C)C(=O)NCP(=O)(O)CP(=O)(O)O (stereo unspecified) | 0.61 µM |  |  |  |  | 
CC(C)=CCC/C(C)=C/CC/[N+](C)=C(\N)NCP(=O)(O)CP(=O)([O-])O | 1.9 µM |  |  |  |  | 
NCP(=O)(O)CP(=O)(O)O |  | 4.2 µM | 150 µM | inactive | 15 µM | 

From ChEMBL document CHEMBL4699520, “A guanidinium-based inhibitor of a type I isopentenyl diphosphate isomerase” (Bioorg Med Chem Lett, 2020)
